# From patent US10174024B2, “5H-pyrido[3,2-B]indole compounds as anticancer agents” (BRISTOL-MYERS SQUIBB COMPANY, priority 2015, dated 2019)
# Target: BRD4 (Homo sapiens, UniProt O60885)
# Experiment: Time Resolved Fluorescence Resonance Energy Transfer (TR-FRET) binding assay, FRET BRD4
# Details: one of the FRET assays described (BRD4 bromodomain construct not specified); read-out: FRET BRD4 IC50
compound,measurement,value
"4-{5-[(3-Fluoropyridin-2-yl)(oxan-4-yl)methyl]-3-[4-(^2H3)methyl-1-methyl-1H-1,2,3-triazol-5-yl]-5H-pyrido[3,2-b]indol-7-yl}-1λ^6,4-thiomorpholine-1,1-dione [Example 68]",IC50,< 5 nM
"Cc1nnn(C)c1-c1cnc2c3ccc(C4(C)CNC(=O)O4)cc3n([C@H](c3ccccc3)C3CCOCC3)c2c1 (single isomer, unassigned) [Example 9]",IC50,< 5 nM
"Cc1nnn(C)c1-c1cnc2c3ccc(C4(C)CNC(=O)O4)cc3n([C@H](c3ccccc3)C3CCOCC3)c2c1 (single isomer, unassigned) [Example 10]",IC50,< 5 nM
"Cc1nnn(C)c1-c1cnc2c3ccc(N4CCC(F)(F)CC4)cc3n(C(c3ccccc3)C3CCC(F)(F)CC3)c2c1 (single isomer, unassigned) [Example 75, 1-{5-[(4,4-Difluorocyclohexyl)(phenyl)methyl]-3-(dimethyl-1H-1,2,3-triazol-5-yl)-5H-pyrido[3,2-b]indol-7-yl}-4,4-difluoropiperidine]",IC50,< 5 nM
"Cc1nnn(C)c1-c1cnc2c3ccc(N4CCC(F)(F)CC4)cc3n(C(c3ccccc3)C3CCC(F)(F)CC3)c2c1 (single isomer, unassigned) [Example 76, 1-{5-[(4,4-Difluorocyclohexyl)(phenyl)methyl]-3-(dimethyl-1H-1,2,3-triazol-5-yl)-5H-pyrido[3,2-b]indol-7-yl}-4,4-difluoropiperidine]",IC50,< 5 nM
"Cc1nnn(C)c1-c1cnc2c3ccc(N4CCC(C(F)(F)F)CC4)cc3n(C(c3ccccc3)C3CCC(F)(F)CC3)c2c1 (single isomer, unassigned) [Example 77, 1-{5-[(4,4-Difluorocyclohexyl)(phenyl)methyl]-3-(dimethyl-1H-1,2,3-triazol-5-yl)-5H-pyrido[3,2-b]indol-7-yl}-4-(trifluoromethyl)piperidine]",IC50,< 1 nM
"Cc1nnn(C)c1-c1cnc2c3ccc(N4CCC(C(F)(F)F)CC4)cc3n(C(c3ccccc3)C3CCC(F)(F)CC3)c2c1 (single isomer, unassigned) [Example 78, 1-{5-[(4,4-Difluorocyclohexyl)(phenyl)methyl]-3-(dimethyl-1H-1,2,3-triazol-5-yl)-5H-pyrido[3,2-b]indol-7-yl}-4-(trifluoromethyl)piperidine]",IC50,< 5 nM
"Cc1nnn(C)c1-c1cnc2c3cc(N4C[C@@H](C)O[C@@H](C)C4)ccc3n(C(c3ccccc3)C3CCOCC3)c2c1 (stereo in doubt) [Example 3, (2R,6S)-4-[3-(Dimethyl-1H-1,2,3-triazol-5-yl)-5-[(R)-oxan-4-yl(phenyl)methyl]-5H-pyrido[3,2-b]indol-8-yl]-2,6-dimethylmorpholine]",IC50,< 5 nM
"Cc1nnn(C)c1-c1cnc2c3ccc(-c4ccnn4C)cc3n([C@H](c3ccccc3)C3CCOCC3)c2c1 [Example 1, 1,4-Dimethyl-5-[7-(1-methyl-1H-pyrazol-5-yl)-5-[(S)-oxan-4-yl(phenyl)methyl]-5H-pyrido[3,2-b]indol-3-yl]-1H-1,2,3-triazole]",IC50,< 5 nM
"Cc1nnn(C)c1-c1cnc2c3ccc(-c4ccon4)cc3n([C@H](c3ccccc3)C3CCOCC3)c2c1 [Example 2, 1,4-Dimethyl-5-{5-[(S)-oxan-4-yl(phenyl)methyl]-7-(1,2-oxazol-3-yl)-5H-pyrido[3,2-b]indol-3-yl}-1H-1,2,3-triazole]",IC50,< 5 nM
"Cc1nnn(C)c1-c1cnc2c3cc(C4CCNCC4)ccc3n([C@H](c3ccccc3)C3CCOCC3)c2c1 [Example 4, 4-[3-(Dimethyl-1H-1,2,3-triazol-5-yl)-5-[(S)-oxan-4-yl(phenyl)methyl]-5H-pyrido[3,2-b]indol-8-yl]piperidine]",IC50,< 1 nM
"Cc1noc(C)c1-c1cnc2c3cc(C4CCN(C(=O)CO)CC4)ccc3n([C@H](c3ccccc3)C3CCOCC3)c2c1 [Example 6, 1-{4-[3-(Dimethyl-1,2-oxazol-4-yl)-5-[(S)-oxan-4-yl(phenyl)methyl]-5H-pyrido[3,2-b]indol-8-yl]piperidin-1-yl}-2-hydroxyethan-1-one]",IC50,< 5 nM
"CC(=O)N1CCC(c2ccc3c(c2)c2ncc(-c4c(C)noc4C)cc2n3[C@H](c2ccccc2)C2CCOCC2)CC1 [Example 7, 1-{4-[3-(Dimethyl-1,2-oxazol-4-yl)-5-[(S)-oxan-4-yl(phenyl)methyl]-5H-pyrido[3,2-b]indol-8-yl]piperidin-1-yl}ethan-1-one]",IC50,< 1 nM
"CC(=O)OCC(=O)N1CCC(c2ccc3c(c2)c2ncc(-c4c(C)nnn4C)cc2n3[C@H](c2ccccc2)C2CCOCC2)CC1 [Example 8, 2-{4-[3-(Dimethyl-1H-1,2,3-triazol-5-yl)-5-[(S)-oxan-4-yl(phenyl)methyl]-5H-pyrido[3,2-b]indol-8-yl]piperidin-1-yl}-2-oxoethyl acetate]",IC50,< 5 nM
"Cc1nnn(C)c1-c1cnc2c3ccc(-c4nnn[nH]4)cc3n([C@H](c3ccccc3)C3CCOCC3)c2c1 [Example 11, 5-[3-(Dimethyl-1H-1,2,3-triazol-5-yl)-5-[(S)-oxan-4-yl(phenyl)methyl]-5H-pyrido[3,2-b]indol-7-yl]-1H-1,2,3,4-tetrazole]",IC50,< 1 nM
"Cc1nnn(C)c1-c1cnc2c3ccc(N4CCCOC4=O)cc3n([C@H](c3ccccc3)C3CCOCC3)c2c1 [Example 12, 3-[3-(Dimethyl-1H-1,2,3-triazol-5-yl)-5-[(S)-oxan-4-yl(phenyl)methyl]-5H-pyrido[3,2-b]indol-7-yl]-1,3-oxazinan-2-one]",IC50,< 5 nM
"Cc1nnn(C)c1-c1cnc2c3cc(N4CCNCC4)ccc3n([C@H](c3ccccc3)C3CCOCC3)c2c1 [Example 13, 1-[3-(Dimethyl-1H-1,2,3-triazol-5-yl)-5-[(S)-oxan-4-yl(phenyl)methyl]-5H-pyrido[3,2-b]indol-8-yl]piperazine]",IC50,< 5 nM
"CC(=O)OCC(=O)N1CCN(c2ccc3c(c2)c2ncc(-c4c(C)nnn4C)cc2n3[C@H](c2ccccc2)C2CCOCC2)CC1 [Example 14, 2-{4-[3-(Dimethyl-1H-1,2,3-triazol-5-yl)-5-[(S)-oxan-4-yl(phenyl)methyl]-5H-pyrido[3,2-b]indol-8-yl]piperazin-1-yl}-2-oxoethyl acetate]",IC50,< 5 nM
"Cc1nnn(C)c1-c1cnc2c3cc(N4CCN(C5COC5)CC4)ccc3n([C@H](c3ccccc3)C3CCOCC3)c2c1 [Example 15, 1-[3-(Dimethyl-1H-1,2,3-triazol-5-yl)-5-[(S)-oxan-4-yl(phenyl)methyl]-5H-pyrido[3,2-b]indol-8-yl]-4-(oxetan-3-yl)piperazine]",IC50,< 5 nM
"Cc1nnn(C)c1-c1cnc2c3ccc(-c4cnn(C(C)C)c4)cc3n([C@H](c3ccccc3)C3CCOCC3)c2c1 [Example 16, 1,4-Dimethyl-5-{5-[(S)-oxan-4-yl(phenyl)methyl]-7-[1-(propan-2-yl)-1H-pyrazol-4-yl]-5H-pyrido[3,2-b]indol-3-yl}-1H-1,2,3-triazole]",IC50,< 5 nM
"Cc1n[nH]c(C)c1-c1ccc2c3ncc(-c4c(C)nnn4C)cc3n([C@H](c3ccccc3)C3CCOCC3)c2c1 [Example 17, 5-[7-(3,5-Dimethyl-1H-pyrazol-4-yl)-5-[(S)-oxan-4-yl(phenyl)methyl]-5H-pyrido[3,2-b]indol-3-yl]-1,4-dimethyl-1H-1,2,3-triazole]",IC50,< 1 nM
"[2H]C([2H])([2H])c1nnn(C)c1-c1ccc2c3ncc(-c4c(C)nnn4C)cc3n([C@H](c3ccccc3)C3CCOCC3)c2c1 [Example 18, 5-[3-(Dimethyl-1H-1,2,3-triazol-5-yl)-5-[(S)-oxan-4-yl(phenyl)methyl]-5H-pyrido[3,2-b]indol-7-yl]-4-(^2H3)methyl-1-methyl-1H-1,2,3-triazole]",IC50,< 1 nM
